Results on 34 compounds are retold here after ChEMBL document CHEMBL3132792, “Exploring the effect of N-substitution in nor-lobelane on the interaction with VMAT2: discovery of a potential clinical candidate for treatment of methamphetamine abuse” (Medchemcomm, 2013).

For orientation: Ki means a measure of affinity in units of concentration, obtained from inhibition or displacement. High values mean weaker binding, low ones tighter binding.

Experiment [1] addresses T1, Synaptic vesicular amine transporter (Rattus norvegicus, UniProt Q01827). Nature of the experiment: Inhibition of [3H]DA uptake at VMAT2 in rat striatal synaptic vesicles.
For experiment [2], the target named is T1, Synaptic vesicular amine transporter. Briefly: Inhibition of [3H]DTBZ binding to VMAT2 in rat synaptic vesicle membranes. It is filed as cell membranes.

T1 sequence (Q01827 whole entry): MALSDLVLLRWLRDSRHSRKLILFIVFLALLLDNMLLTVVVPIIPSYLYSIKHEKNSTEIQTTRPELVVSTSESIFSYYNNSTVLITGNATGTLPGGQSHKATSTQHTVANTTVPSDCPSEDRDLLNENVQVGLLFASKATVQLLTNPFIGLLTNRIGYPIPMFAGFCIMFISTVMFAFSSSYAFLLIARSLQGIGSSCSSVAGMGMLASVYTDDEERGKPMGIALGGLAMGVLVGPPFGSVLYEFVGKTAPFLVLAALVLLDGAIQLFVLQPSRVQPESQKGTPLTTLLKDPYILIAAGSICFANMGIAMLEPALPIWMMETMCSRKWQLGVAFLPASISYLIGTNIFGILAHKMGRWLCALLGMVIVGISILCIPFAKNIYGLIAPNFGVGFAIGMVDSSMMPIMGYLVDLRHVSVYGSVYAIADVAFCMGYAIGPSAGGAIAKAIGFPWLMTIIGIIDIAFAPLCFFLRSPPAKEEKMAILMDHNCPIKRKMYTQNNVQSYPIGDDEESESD

In turn, `c1ccc(CC[C@H]2CCC[C@@H](CCc3ccccc3)N2)cc1` registered an inhibition constant (Ki) in experiment [1] of 44 nM.
Regarding `CCN1[C@@H](CCc2ccccc2)CCC[C@H]1CCc1ccccc1`, the affinity in experiment [1], expressed as Ki, was 60 nM.
Same read-out and setting: for `CCCN1[C@@H](CCc2ccccc2)CCC[C@H]1CCc1ccccc1` the value was 87 nM.
As to `COC(=O)CN1[C@@H](CCc2ccccc2)CCC[C@H]1CCc1ccccc1`, the values for the Ki in experiment [2] and in experiment [1] were 4400 nM and 340 nM, respectively.
On to `OCCN1[C@@H](CCc2ccccc2)CCC[C@H]1CCc1ccccc1`, for which the Ki in experiment [2] was determined as 1430 nM; in experiment [1], 170 nM.
As for `N#CCN1[C@@H](CCc2ccccc2)CCC[C@H]1CCc1ccccc1`, the Ki in experiment [2] is 22600 nM; in experiment [1], 4490 nM.
Turning to `NCCN1[C@@H](CCc2ccccc2)CCC[C@H]1CCc1ccccc1`, the inhibition constant Ki in experiment [2] came out at 5590 nM; in experiment [1], 510 nM.
Taken in the same sequence, the figures for `CN(C)CCN1[C@@H](CCc2ccccc2)CCC[C@H]1CCc1ccccc1` were 9590 nM and 180 nM.
Taken in the same sequence, the figures for `N=C(N)NCCN1[C@@H](CCc2ccccc2)CCC[C@H]1CCc1ccccc1` were 3490 nM and 680 nM.
On to `CN(C)N1[C@@H](CCc2ccccc2)CCC[C@H]1CCc1ccccc1`, for which the Ki is over 100000 nM in experiment [2] and 54 nM in experiment [1].
In the case of `OC[C@H](O)CN1[C@@H](CCc2ccccc2)CCC[C@H]1CCc1ccccc1`, the Ki in experiment [2] came to 560 nM; in experiment [1], 190 nM.
For `OC[C@@H](O)CN1[C@@H](CCc2ccccc2)CCC[C@H]1CCc1ccccc1`, the Ki in experiment [2] was found to be 1280 nM; in experiment [1], 860 nM.
As to `OC[C@H](O)CN1[C@@H](CCc2ccc3c(c2)OCO3)CCC[C@H]1CCc1ccc2c(c1)OCO2`, the inhibition constant (Ki) in experiment [2] is 1300 nM; in experiment [1] it was 160 nM.
Regarding `OC[C@@H](O)CN1[C@@H](CCc2ccc3c(c2)OCO3)CCC[C@H]1CCc1ccc2c(c1)OCO2`, the figures for the Ki in experiment [2] and in experiment [1] were 5610 nM and 760 nM, respectively.
`OC[C@H](O)CN1[C@@H](CCc2cccc(F)c2)CCC[C@H]1CCc1cccc(F)c1`: the Ki in experiment [2] came out at 1000 nM; in experiment [1] it was 190 nM.
Taken in the same sequence, the figures for `OC[C@@H](O)CN1[C@@H](CCc2cccc(F)c2)CCC[C@H]1CCc1cccc(F)c1` were 1080 nM and 1030 nM.
Consider `COc1ccccc1CC[C@H]1CCC[C@@H](CCc2ccccc2OC)N1C[C@@H](O)CO`, for which the Ki in experiment [2] is 1040 nM; in experiment [1], 490 nM.
For `COc1ccccc1CC[C@H]1CCC[C@@H](CCc2ccccc2OC)N1C[C@H](O)CO`, the Ki was determined as 1870 nM in experiment [2] and 790 nM in experiment [1].
Take `COc1cccc(CC[C@H]2CCC[C@@H](CCc3cccc(OC)c3)N2C[C@@H](O)CO)c1`: the figures for the Ki in experiment [2] and in experiment [1] were 460 nM and 140 nM, respectively.
Consider `COc1cccc(CC[C@H]2CCC[C@@H](CCc3cccc(OC)c3)N2C[C@H](O)CO)c1`, for which the Ki was 2730 nM in experiment [2] and 520 nM in experiment [1].
For the compound `OC[C@H](O)CN1[C@@H](CCc2ccc(Cl)cc2Cl)CCC[C@H]1CCc1ccc(Cl)cc1Cl`, the Ki in experiment [2] was 10400 nM; in experiment [1], 140 nM.
As to `OC[C@@H](O)CN1[C@@H](CCc2ccc(Cl)cc2Cl)CCC[C@H]1CCc1ccc(Cl)cc1Cl`, the inhibition constant (Ki) in experiment [2] turned out to be 13900 nM; in experiment [1], 90 nM.
Take `OC[C@H](O)CN1[C@@H](CCc2cccc3ccccc23)CCC[C@H]1CCc1cccc2ccccc12`: the figures for the Ki in experiment [2] and in experiment [1] were 310 nM and 30 nM, respectively.
In the case of `OC[C@@H](O)CN1[C@@H](CCc2cccc3ccccc23)CCC[C@H]1CCc1cccc2ccccc12`, the Ki in experiment [2] came to 130 nM; in experiment [1], 80 nM.
For `OC[C@H](O)CN1[C@@H](CCc2ccc(-c3ccccc3)cc2)CCC[C@H]1CCc1ccc(-c2ccccc2)cc1`, the Ki in experiment [2] is over 100000 nM; in experiment [1], 790 nM.
For `OC[C@@H](O)CN1[C@@H](CCc2ccc(-c3ccccc3)cc2)CCC[C@H]1CCc1ccc(-c2ccccc2)cc1` the same measures were 90200 nM and 2250 nM.
As to `FC(F)Oc1ccc(CC[C@H]2CCC[C@@H](CCc3ccc(OC(F)F)cc3)N2)cc1`, the figures for the Ki in experiment [2] and in experiment [1] were 1750 nM and 23 nM, respectively.
Take `OC[C@H](O)CN1[C@@H](CCc2ccc(OC(F)F)cc2)CCC[C@H]1CCc1ccc(OC(F)F)cc1`: the Ki in experiment [2] is 530 nM; in experiment [1], 60 nM.
Taken in the same sequence, the figures for `COc1ccc(F)c(CC[C@H]2CCC[C@@H](CCc3cc(OC)ccc3F)N2)c1` were 930 nM and 39 nM.
Turning to `COc1ccc(F)c(CC[C@H]2CCC[C@@H](CCc3cc(OC)ccc3F)N2C[C@@H](O)CO)c1`, the inhibitory constant (Ki) stood at 210 nM in experiment [2] and 160 nM in experiment [1].
As for `Fc1cc(F)cc(CC[C@H]2CCC[C@@H](CCc3cc(F)cc(F)c3)N2)c1`, the results for the Ki in experiment [2] and in experiment [1] were 5240 nM and 43 nM, respectively.
As to `OC[C@H](O)CN1[C@@H](CCc2cc(F)cc(F)c2)CCC[C@H]1CCc1cc(F)cc(F)c1`, the figures for the Ki in experiment [2] and in experiment [1] were 620 nM and 104 nM, respectively.
Regarding `COc1ccc(C[C@H]2CCC[C@@H](Cc3ccc(OC)cc3)N2)cc1`, the figures for the Ki in experiment [2] and in experiment [1] were 13100 nM and 48 nM, respectively.
For the compound `COc1ccc(C[C@H]2CCC[C@@H](Cc3ccc(OC)cc3)N2C[C@@H](O)CO)cc1`, the Ki stood at 91000 nM in experiment [2] and 570 nM in experiment [1].
